Data as given in US20050054555A1, “Kahalalide compounds for use in cancer therapy” (priority 2001, published 2005).
Entries after “also recorded” stand apart in the source; their conditions may differ.

Columns and labels:
[1] = Phase I trial KHF-A-001-00: plasma pharmacokinetics (LC-MS/MS); format: in vivo, human
Description: Bioanalysis of KF was performed by LC-MS/MS.

[2] = tested on: patients with solid tumours; test: Phase I trial KHF-A-002-01: safety of Kahalalide F weekly infusion over 1 hour; format: in vivo, human
Text: (§1) The rate of subject entry and escalation to the next dose level will depend upon assessment of the safety profile of patients entered at each dose level. Toxicity will be evaluated and graded according to the Common Toxicity Criteria, version 2.0.
In order to minimize the number of patients treated at the subtoxic dose levels, a single patient will be treated per dose level with 100% dose escalation in the absence of any toxicity G2 (excluding alopecia) during their first course of treatment. After the occurrence of grade 2 toxicity (excluding asthenia, alopecia, nausea and vomiting or anemia), the dose level is expanded to three patients with only 50% incremental increase in dosage in advancing to the next dose level. For the occurrence of grade 3 non-hematological toxic effects the dose level should be expanded up to six patients. This second cohort of 3 patients will be included consecutively. If the first or second patient develops dose limiting toxicities no further patients will be treated at this dose level, it will be defined as MTD and the accrual will begin at a lower dose level. If only one DLT occurs at this dose level another 3 patients will be included at the next dose level with an increase of 25% only.
The maximum tolerated dose (MTD) is defined as the dose at which at least 2 out of 3 or more than 3 patients experience DLT. However, it is possible that additional patients may experience DLT due to the timing of patient enrollment into that dose level.
The toxicity will be evaluated and clasified in grades according to the Common Toxicity Criteria (CTC) version NCI 2.0, March 1998.
Dose Limiting Toxicities (DLTs) are Defined as Follows: […]
ANC <500/mm3 for more than 5 days.
ANC <500/mm3 with a temperature of 38'5 or more.
Any other non-hematological grade 3-4 toxicity excluding: nausea, emesis without prophilaxis
G3 transaminases increase >14 days
Hypersensibility reactions

[3] = tested on: human patients afflicted with cancer; test: Clinical programme (both phase I trials): toxicity summary; format: in vivo
Description: Clinical trials were carried out based on the following protocols:
as §1

[4] = weekly 1 h infusion, all dose levels
[5] = weekly 1 h infusion, all dose levels, 19 patients evaluated
[6] = weekly 1 h infusion, all dose levels, head prints 20 patients

For `C/C=C1\NC(=O)[C@H](Cc2ccccc2)NC(=O)[C@@H](C(C)C)NC(=O)[C@@H](C(C)CC)NC(=O)[C@H](NC(=O)C(NC(=O)[C@H](CCCN)NC(=O)[C@H]2CCCN2C(=O)[C@H](NC(=O)[C@@H](NC(=O)[C@@H](NC(=O)[C@H](NC(=O)CCCC(C)C)C(C)C)C(C)O)C(C)C)C(C)C)C(C)CC)C(C)OC(=O)[C@H](C(C)C)NC1=O` (single isomer, unassigned) [kahalalide F], the Maximum plasma concentrations ([1]; dose level 320 μg/m2/day) was 35 to 50 ng/mL, the clearance ([1]; male, human, plasma, iv infusion over 1 h, 5 consecutive days every 3 weeks, first course, 20-320 μg/m2/day, read-out: Total plasma clearance) was 267 mL/min and the half-life ([1]; male, human, plasma, iv infusion over 1 h, 5 consecutive days every 3 weeks, first course, read-out: terminal half-life (converted)) was 27.6 min. For the same molecule, the “relationship between dose and AUC” value ([1]; whole dose range 20-320 μg/m2/day) was “linear relationship”, the “incidence of grade 4 hypertransaminasemia” value ([2]; 800-1200 mcg/m2/wk) was “all the patients had grade 4 hypertransaminasemia” and the “time of onset of grade 4 hypertransaminasemia after the infusion” value ([2]; 1200 mcg/m2 weekly) was 5 h. For the same molecule, the Worst toxicity ([2]; Level VI, dose 1000 weekly, 3 patients) was “Hypersensitivity; also recorded: hypertrans”, the Bronchoconstriction observed ([2]; highest dose level (1000 and 1200)) was “two patients” and the “reversibility of hypertransaminasemia overall” value ([2]; patients remained asymptomatic) was “completely reversible”. For the same molecule, the reversibility of hypertransaminasemia ([2]; patients treated at 1000 and 1200) was “not reversible by day 8”, the “dose at which the DLT (grade 4 hypertransaminasemia non reversible by day 21) was identified” value ([2]; weekly 1 h infusion) was 1200 mcg/m2 and the “Nonhematologic toxicity, laboratory abnormalities: Alk. phosphatase, Grade 1” value [2, 4] was 27.8. The “Nonhematologic toxicity, laboratory abnormalities: Alk. phosphatase, Grade 2” value [2, 4] was 11.1, the “Nonhematologic toxicity, laboratory abnormalities: Alk. phosphatase, Grade 3” value [2, 4] was 0 and the “Nonhematologic toxicity, laboratory abnormalities: Alk. phosphatase, Grade 4” value [2, 4] was 0. For the same molecule, the “Nonhematologic toxicity, laboratory abnormalities: Bilirubin, Grade 1” value [2, 4] was 5.6, the “Nonhematologic toxicity, laboratory abnormalities: Bilirubin, Grade 2” value [2, 4] was 0 and the “Nonhematologic toxicity, laboratory abnormalities: Bilirubin, Grade 3” value [2, 4] was 0. For the same molecule, the “Nonhematologic toxicity, laboratory abnormalities: Bilirubin, Grade 4” value [2, 4] was 0, the “Nonhematologic toxicity, laboratory abnormalities: CPK, Grade 1” value [2, 4] was 36.8 and the “Nonhematologic toxicity, laboratory abnormalities: CPK, Grade 2” value [2, 4] was 0. For the same molecule, the “Nonhematologic toxicity, laboratory abnormalities: CPK, Grade 3” value [2, 4] was 0, the “Nonhematologic toxicity, laboratory abnormalities: CPK, Grade 4” value [2, 4] was 0 and the “Nonhematologic toxicity, laboratory abnormalities: Ca++ hyper, Grade 1” value [2, 4] was 84.2. For the same molecule, the “Nonhematologic toxicity, laboratory abnormalities: Ca++ hyper, Grade 2” value [2, 4] was 0, the “Nonhematologic toxicity, laboratory abnormalities: Ca++ hyper, Grade 3” value [2, 4] was 0 and the “Nonhematologic toxicity, laboratory abnormalities: Ca++ hyper, Grade 4” value [2, 4] was 0. The “Nonhematologic toxicity, laboratory abnormalities: Ca++ hypo, Grade 1” value [2, 4] was 21.1, the “Nonhematologic toxicity, laboratory abnormalities: Ca++ hypo, Grade 2” value [2, 4] was 0 and the “Nonhematologic toxicity, laboratory abnormalities: Ca++ hypo, Grade 3” value [2, 4] was 0. The “Nonhematologic toxicity, laboratory abnormalities: Ca++ hypo, Grade 4” value [2, 4] was 0, the “Nonhematologic toxicity, laboratory abnormalities: Creatinine, Grade 1” value [2, 4] was 31.6 and the “Nonhematologic toxicity, laboratory abnormalities: Creatinine, Grade 2” value [2, 4] was 5.3. For the same molecule, the “Nonhematologic toxicity, laboratory abnormalities: Creatinine, Grade 3” value [2, 4] was 0, the “Nonhematologic toxicity, laboratory abnormalities: Creatinine, Grade 4” value [2, 4] was 0 and the “Nonhematologic toxicity, laboratory abnormalities: GGT, Grade 1” value [2, 4] was 16.7. The “Nonhematologic toxicity, laboratory abnormalities: GGT, Grade 2” value [2, 4] was 11.1, the “Nonhematologic toxicity, laboratory abnormalities: GGT, Grade 3” value [2, 4] was 5.6 and the “Nonhematologic toxicity, laboratory abnormalities: GGT, Grade 4” value [2, 4] was 11.1. For the same molecule, the “Nonhematologic toxicity, laboratory abnormalities: GOT, Grade 1” value [2, 4] was 38.9, the “Nonhematologic toxicity, laboratory abnormalities: GOT, Grade 2” value [2, 4] was 0 and the “Nonhematologic toxicity, laboratory abnormalities: GOT, Grade 3” value [2, 4] was 0. The “Nonhematologic toxicity, laboratory abnormalities: GOT, Grade 4” value [2, 4] was 16.7, the “Nonhematologic toxicity, laboratory abnormalities: GPT, Grade 1” value [2, 4] was 22.2 and the “Nonhematologic toxicity, laboratory abnormalities: GPT, Grade 2” value [2, 4] was 5.6. For the same molecule, the “Nonhematologic toxicity, laboratory abnormalities: GPT, Grade 3” value [2, 4] was 0, the “Nonhematologic toxicity, laboratory abnormalities: GPT, Grade 4” value [2, 4] was 16.7 and the “Nonhematologic toxicity, laboratory abnormalities: K+ hypo, Grade 1” value [2, 4] was 5.3. The “Nonhematologic toxicity, laboratory abnormalities: K+ hypo, Grade 2” value [2, 4] was 0, the “Nonhematologic toxicity, laboratory abnormalities: K+ hypo, Grade 3” value [2, 4] was 0 and the “Nonhematologic toxicity, laboratory abnormalities: K+ hypo, Grade 4” value [2, 4] was 0. The “Nonhematologic toxicity, laboratory abnormalities: Na+ hypo, Grade 1” value [2, 4] was 21.1, the “Nonhematologic toxicity, laboratory abnormalities: Na+ hypo, Grade 2” value [2, 4] was 0 and the “Nonhematologic toxicity, laboratory abnormalities: Na+ hypo, Grade 3” value [2, 4] was 0. For the same molecule, the “Nonhematologic toxicity, laboratory abnormalities: Na+ hypo, Grade 4” value [2, 4] was 5.3, the “Hematologic toxicity (worst per patient): Hemoglobin, Grade 1” value [2, 5] was 57.9 and the “Hematologic toxicity (worst per patient): Hemoglobin, Grade 2” value [2, 5] was 21.1. The “Hematologic toxicity (worst per patient): Hemoglobin, Grade 3” value [2, 5] was 0, the “Hematologic toxicity (worst per patient): Hemoglobin, Grade 4” value [2, 5] was 0 and the “Hematologic toxicity (worst per patient): Leukocytes, Grade 1” value [2, 5] was 15.8. For the same molecule, the “Hematologic toxicity (worst per patient): Leukocytes, Grade 2” value [2, 5] was 5.3, the “Hematologic toxicity (worst per patient): Leukocytes, Grade 3” value [2, 5] was 0 and the “Hematologic toxicity (worst per patient): Leukocytes, Grade 4” value [2, 5] was 0. For the same molecule, the “Hematologic toxicity (worst per patient): Neutrophils, Grade 1” value [2, 5] was 5.3, the “Hematologic toxicity (worst per patient): Neutrophils, Grade 2” value [2, 5] was 5.3 and the “Hematologic toxicity (worst per patient): Neutrophils, Grade 3” value [2, 5] was 0. The “Hematologic toxicity (worst per patient): Neutrophils, Grade 4” value [2, 5] was 0, the “Hematologic toxicity (worst per patient): Platelets, Grade 1” value [2, 5] was 10.5 and the “Hematologic toxicity (worst per patient): Platelets, Grade 2” value [2, 5] was 0. The “Hematologic toxicity (worst per patient): Platelets, Grade 3” value [2, 5] was 0, the “Hematologic toxicity (worst per patient): Platelets, Grade 4” value [2, 5] was 0 and the “Most frequently reported non-hematologic toxicities: Diarrhea, Grade 1” value [2, 6] was 0. For the same molecule, the “Most frequently reported non-hematologic toxicities: Diarrhea, Grade 2” value [2, 6] was 5.3, the “Most frequently reported non-hematologic toxicities: Diarrhea, Grade 3” value [2, 6] was 5.3 and the “Most frequently reported non-hematologic toxicities: Diarrhea, Grade 4” value [2, 6] was 0. The “Most frequently reported non-hematologic toxicities: Fatigue, Grade 1” value [2, 6] was 21.1, the “Most frequently reported non-hematologic toxicities: Fatigue, Grade 2” value [2, 6] was 21.1 and the “Most frequently reported non-hematologic toxicities: Fatigue, Grade 3” value [2, 6] was 0. For the same molecule, the “Most frequently reported non-hematologic toxicities: Fatigue, Grade 4” value [2, 6] was 0, the “Most frequently reported non-hematologic toxicities: Hypersensitivity, Grade 1” value [2, 6] was 15.8 and the “Most frequently reported non-hematologic toxicities: Hypersensitivity, Grade 2” value [2, 6] was 5.3. For the same molecule, the “Most frequently reported non-hematologic toxicities: Hypersensitivity, Grade 3” value [2, 6] was 5.3, the “Most frequently reported non-hematologic toxicities: Hypersensitivity, Grade 4” value [2, 6] was 0 and the “Most frequently reported non-hematologic toxicities: Hypertension, Grade 1” value [2, 6] was 0. For the same molecule, the “Most frequently reported non-hematologic toxicities: Hypertension, Grade 2” value [2, 6] was 0, the “Most frequently reported non-hematologic toxicities: Hypertension, Grade 3” value [2, 6] was 0 and the “Most frequently reported non-hematologic toxicities: Hypertension, Grade 4” value [2, 6] was 0. For the same molecule, the “Most frequently reported non-hematologic toxicities: Inject-site reaction, Grade 1” value [2, 6] was 0, the “Most frequently reported non-hematologic toxicities: Inject-site reaction, Grade 2” value [2, 6] was 5.3 and the “Most frequently reported non-hematologic toxicities: Inject-site reaction, Grade 3” value [2, 6] was 0. For the same molecule, the “Most frequently reported non-hematologic toxicities: Inject-site reaction, Grade 4” value [2, 6] was 0, the “Most frequently reported non-hematologic toxicities: Nausea, Grade 1” value [2, 6] was 31.6 and the “Most frequently reported non-hematologic toxicities: Nausea, Grade 2” value [2, 6] was 10.5. For the same molecule, the “Most frequently reported non-hematologic toxicities: Nausea, Grade 3” value [2, 6] was 0, the “Most frequently reported non-hematologic toxicities: Nausea, Grade 4” value [2, 6] was 0 and the “Most frequently reported non-hematologic toxicities: Periph-sens neuro, Grade 1” value [2, 6] was 36.8. The “Most frequently reported non-hematologic toxicities: Periph-sens neuro, Grade 2” value [2, 6] was 0, the “Most frequently reported non-hematologic toxicities: Periph-sens neuro, Grade 3” value [2, 6] was 5.3 and the “Most frequently reported non-hematologic toxicities: Periph-sens neuro, Grade 4” value [2, 6] was 0. For the same molecule, the “Most frequently reported non-hematologic toxicities: Vomiting, Grade 1” value [2, 6] was 10.5, the “Most frequently reported non-hematologic toxicities: Vomiting, Grade 2” value [2, 6] was 5.3 and the “Most frequently reported non-hematologic toxicities: Vomiting, Grade 3” value [2, 6] was 0. The “Most frequently reported non-hematologic toxicities: Vomiting, Grade 4” value [2, 6] was 0, the dose limiting toxicity ([2]; weekly schedule) was “grade 4 hypertransaminasemia” and the “time of hypertransaminasemia peak/appearance after the infusion” value ([2]; weekly schedule) was 4 to 5 h. For the same molecule, the “Grade 1-2 neutropenia, share of patients” value [3] was 10%, the “Grade 1 hypokalyemia, share of patients” value [3] was 20% and the “grade 1 hypophosphatemia, share of patients” value [3] was 10%. For the same molecule, the “grade 1 renal toxicity, share of patients” value [3] was “about 35%”, the “grade 2 hypophosphatemia, share of patients” value [3] was 15% and the “grade 3-4 hematologic toxicities” value [3] was “No grade 3-4 toxicities were reported”.
